Laboratory results published in publication PMC11206678, “Peptide-Alkoxyamine Drugs: An Innovative Approach to Fight Schistosomiasis: “Digging Their Graves with Their Forks”” (Pathogens, 2024).
Entries after “also recorded” stand apart in the source; their conditions may differ. Structures can show the parent of a compound that is named as a salt.

What was measured:
[1] = tested on: Schistosoma mansoni adult worms; test: Viability of Schistosoma mansoni adult worms in vitro; format: cell-based, Schistosoma mansoni NMRI strain; conditions: 100 μg/mL, 37 °C; for Time to Kill 50% of Parasites / Time to Kill 100% of Parasites: adult worms in RPMI 1640/Tween 80/DMSO, observed up to 72 h, duplicate wells; for Activity/toxicity towards schistosomes (in words): adult worms
Description: Experiments on the viability of Schistosoma mansoni adult worms. In vitro tests were performed on Schistosoma mansoni NMRI strains. This parasite is lab maintained on Biomphalaria glabrata (BRE strain) as intermediate mollusc host and Golden Hamster (Janvier Labs, Le Genest-Saint-Isle, France) as definitive vertebrate host. Methods, for molluscs’ and hamsters’ infection and for parasite recovery, were previously described. Adult worms were recovered by hepatic perfusion technique between 42 and 47 days post hamster exposition to parasite larvae. Worms were carefully collected and disposed in 12-well Falcon® plate containing 2 mL of RPMI 1640 (supplemented with L-glutamine and Hepes 25 mM). The plates containing a minimum of 15 worms by well were then placed in an incubator chamber at 37 °C and 5% CO2. The worms sex ratio was almost balanced in each well. The drug was first dissolved in DMSO (Sigma-Aldrich) to give a 100 mg/mL mother solution. Then the stock solution was complemented with Tween 80 and RPMI to obtain the following final ratio dilution: RPMI 1640/Tween 80/DMSO and 1000/0.95/3.8, v/v/v.
All molecules were tested at a final concentration of 100 µg/mL and 10 µg/mL. A negative control consisted in adding the same RPMI 1640/Tween 80/DMSO solution, but without any drug and a positive control consisted in adding praziquantel. All molecules and control were performed in duplicates of well. The worm viability was checked after 1, 2, 3, 4, 5, 6, 7, 8, 24, 48, and 72 h after adding the molecule.

[2] = Homolysis kinetics of alkoxyamines by EPR (growth of nitroxide); format: physicochemical; conditions: mixture of diastereoisomers; for Homolysis rate constant kd: 0.1 mM alkoxyamine, O2 as alkyl radical scavenger; for Activation energy Ea: by Equation (2) from kd and T, A = 2.4 10^14 s^−1
Description: Preparation of alkoxyamines and reference samples. All reagents including anhydrous solvents used for the chemical synthesis were purchased from commercially available sources such as Merck, TCI, and Fluorochem, and were used without further purification. All air and/or water-sensitive reactions were carried out under an argon atmosphere with dry solvents using standard syringe-cannula/septa techniques. Routine monitoring of reactions was performed using Merck Silica gel 60 F254, aluminum-supported TLC plates; spots were visualized using UV light and ethanolic acidic para-anisaldehyde solution or ethanolic phosphomolybdic solution, followed by heating. Purifications by means of column chromatography were performed with Silica gel 60 (230–400 mesh). ^1H, ^13C, and ^19F NMR spectra were obtained in CDCl3, MeOD (with residual H2O), D2O, DMSO-d6, or C6D6 solutions on by using Bruker AC400 (400 MHz) and Bruker AC300 (300 MHz) spectrometers. High-resolution mass spectra (HRMS) have been performed using a SYNAPT G2 HDMS (Waters) mass spectrometer equipped with a pneumatically assisted atmospheric pressure ionization (API) source. The sample was ionized in positive electrospray mode under the following conditions: electrospray voltage: 2.8 kV; port voltage: 20 V; Nebulizing gas flow rate (nitrogen): 100 L/h or in negative electrospray mode under the following conditions: electrospray voltage: −2.27 kV; port voltage: −20 V; Nebulizing gas flow rate (nitrogen): 100 L/h. The mass spectra (MS) were obtained with a time-of-flight (TOF) analyzer. The exact mass measurements were carried out in triplicate with external calibration. Homolysis constants were measured by EPR on an EMX Bruker spectrometer from 10^−4 M samples in tertbutyl benzene or in a mixture of H2O-nPrOH (1:1; v:v).
Kinetic experiments. Kinetics of A1–A7 (Scheme 2) for series L and D are performed by monitoring the growth of nitroxide by Electron Paramagnetic Resonance (X-band EMX Bruker machine) in tert-butylbenzene and a water/n-PrOH (for a good solubility of the alkoxyamine) as solvents and using O2 as alkyl radical scavenger to suppress the back reaction (kc in Scheme 2) as already reported. Homolysis rate constants kd are given by Equation (1) ([nitroxide]∞ = [alkoxyamine]0 = 0.1 mM, see Table S1) and the subsequent activation energies Ea given by Equation (2). (1) lnnitroxide∞−nitroxidet/nitroxide∞=−kd·t, (2) Ea=−RTlnkd/A.

[3] = C–ON bond homolysis in t-BuPh, EPR, T (°C): A1L 128.0, A3L 125.0, A5L 130.0, A6L 125, A7L 126.5, A1D 122.5, A3D 119.8, A5D 130
[4] = C–ON bond homolysis in water/n-PrOH v/v 1:1, EPR, T (°C): A1L 95.1, A3L 94.5, A4L 94.6, A5L 94.0, A6L 94.8, A7L 94.3, A1D 93.5, A3D 92.6, A4D 95.0, A5D 94.6

Compound	Time to Kill 50% of Parasites [1] [h]	Time to Kill 100% of Parasites [1] [h]	Activity/toxicity towards schistosomes (in words) [1]	Homolysis rate constant kd [2, 3]	Homolysis rate constant kd [2, 4]	Activation energy Ea ([2]; in t-BuPh) [kcal/mol]	Activation energy Ea ([2]; in water/n-PrOH v/v 1:1) [kcal/mol]	Time to Kill 50% of Parasites ([1]; listed as praziquantel) [h]
4-(((S)-1-(((S)-1-(((S)-1-carboxy-2-phenylethyl)amino)-3-methyl-1-oxobutan-2-yl)amino)-1-oxo-3-phenylpropan-2-yl)amino)-4-oxobutanoic acid [P10L]	6	24	some activity towards schistosomes					
CC(ON1C(C)(C)CCCC1(C)C)c1ccc(NC(=O)[C@@H](Cc2ccccc2)NC(=O)OC(C)(C)C)cc1 (mixture of isomers) [A1D, tert-butyl ((2R)-1-oxo-3-phenyl-1-((4-(1-((2,2,6,6-tetramethylpiperidin-1-yl)oxy)ethyl)phenyl)amino)propan-2-yl)carbamate]				9.6 10^−4 s^−1	1.0 10^−4 s^−1	31.6	30.83	
CC(ON1C(C)(C)CCCC1(C)C)c1ccc(NC(=O)[C@H](Cc2ccccc2)NC(=O)OC(C)(C)C)cc1 (mixture of isomers) [A1L, tert-butyl ((2S)-1-oxo-3-phenyl-1-((4-(1-((2,2,6,6-tetramethylpiperidin-1-yl)oxy)ethyl)phenyl)amino)propan-2-yl)carbamate]				11.0 10^−4 s^−1	1.5 10^−4 s^−1	31.81	30.69	
CC(ON1C(C)(C)CCCC1(C)C)c1ccc(NC(=O)[C@H](Cc2ccccc2)NC(=O)[C@@H](NC(=O)[C@H](Cc2ccccc2)NC(=O)OC(C)(C)C)C(C)C)cc1 (stereo partly drawn) [A3L, tert-butyl ((2S)-1-(((2S)-3-methyl-1-oxo-1-(((2S)-1-oxo-3-phenyl-1-((4-(1-((2,2,6,6-tetramethylpiperidin-1-yl)oxy)ethyl)phenyl)amino)propan-2-yl)amino)butan-2-yl)amino)-1-oxo-3-phenylpropan-2-yl)carbamate]			inactive; also recorded: non-activity	8.4 10^−4 s^−1	1.8 10^−4 s^−1	31.79	30.78	
CC(ON1C(C)(C)CCCC1(C)C)c1ccc(NC(=O)[C@H](Cc2ccccc2)NC(=O)[C@@H](NC(=O)[C@@H](N)Cc2ccccc2)C(C)C)cc1.O=C(O)C(F)(F)F (stereo partly drawn) [A4L, (2S)-1-(((2S)-3-methyl-1-oxo-1-(((2S)-1-oxo-3-phenyl-1-((4-(1-((2,2,6,6-tetramethylpiperidin-1-yl)oxy)ethyl)phenyl)amino)propan-2-yl)amino)butan-2-yl)amino)-1-oxo-3-phenylpropan-2-aminium trifluoroacetate]	2	24	most efficient molecules		1.0 10^−4 s^−1		30.9	
CC(ON1C(C)(C)CCCC1(C)C)c1ccc(NC(=O)[C@H](Cc2ccccc2)NC(=O)[C@@H](NC(=O)[C@@H](N)Cc2ccccc2)C(C)C)cc1 (stereo partly drawn) [A5L, (2S)-2-((S)-2-amino-3-phenylpropanamido)-3-methyl-N-((2S)-1-oxo-3-phenyl-1-((4-(1-((2,2,6,6-tetramethylpiperidin-1-yl)oxy)ethyl)phenyl)amino)propan-2-yl)butanamide]	2	7	most efficient molecules	18 10^−4 s^−1	1.3 10^−4 s^−1	31.57	30.66	
CC(ON1C(C)(C)CCCC1(C)C)c1ccc(NC(=O)[C@H](Cc2ccccc2)NC(=O)[C@@H](NC(=O)[C@H](Cc2ccccc2)NC(=O)CCC(=O)OCc2ccccc2)C(C)C)cc1 (stereo partly drawn) [A6L, Benzyl 4-(((2S)-1-(((2S)-3-methyl-1-oxo-1-(((2S)-1-oxo-3-phenyl-1-((4-(1-((2,2,6,6-tetramethylpiperidin-1-yl)oxy)ethyl)phenyl)amino)propan-2-yl)amino)butan-2-yl)amino)-1-oxo-3-phenylpropan-2-yl)amino)-4-oxobutanoate]	24	48	less active; also recorded: lower activity	11.0 10^−4 s^−1	1.1 10^−4 s^−1	31.57	30.86	
CC(ON1C(C)(C)CCCC1(C)C)c1ccc(NC(=O)[C@H](Cc2ccccc2)NC(=O)[C@@H](NC(=O)[C@H](Cc2ccccc2)NC(=O)CCC(=O)O)C(C)C)cc1 (stereo partly drawn) [A7L, 4-(((2S)-1-(((2S)-3-methyl-1-oxo-1-(((2S)-1-oxo-3-phenyl-1-((4-(1-((2,2,6,6-tetramethylpiperidin-1-yl)oxy)ethyl)phenyl)amino)propan-2-yl)amino)butan-2-yl)amino)-1-oxo-3-phenylpropan-2-yl)amino)-4-oxobutanoic acid]	24	48	less active	15.0 10^−4 s^−1		31.45	30.93	
O=C(C1CCCCC1)N1CC(=O)N2CCc3ccccc3C2C1 (stereo not drawn) [PZQ, praziquantel, reference compound]	1	1						< 1
O=C(O)C(F)(F)F [TFA, reference compound]	7	24						
(S)-1-(((S)-1-(((S)-1-((4-ethylphenyl)amino)-1-oxo-3-phenylpropan-2-yl)amino)-3-methyl-1-oxobutan-2-yl)amino)-1-oxo-3-phenylpropan-2-aminium trifluoroacetate [P22L]			no activity					
(S)-1-(((S)-1-(((S)-1-carboxy-2-phenylethyl)amino)-3-methyl-1-oxobutan-2-yl)amino)-1-oxo-3-phenylpropan-2-aminium trifluoroacetate [P11L]			no activity					
(S)-2-((S)-2-amino-3-phenylpropanamido)-N-((S)-1-((4-ethylphenyl)amino)-1-oxo-3-phenylpropan-2-yl)-3-methylbutanamide [P25L]			no activity					
Benzyl 4-(((S)-1-(((S)-1-(((S)-1-((4-ethylphenyl)amino)-1-oxo-3-phenylpropan-2-yl)amino)-3-methyl-1-oxobutan-2-yl)amino)-1-oxo-3-phenylpropan-2-yl)amino)-4-oxobutanoate [P23L]			no activity					
L-phenylalanyl-L-valyl-L-phenylalanine [P18L]			no activity					
